Measurements published in patent publication US11254644B2, “Inhibitors of alpha-amino-beta-carboxymuconic acid semialdehyde decarboxylase” (TES Pharma S.r.l., priority 2014, dated 2022).

Experiments:
hACMSD (ACMSD1) = hACMSD (ACMSD1) (Homo sapiens (Human), UniProt Q8TDX5); test: Determination of ACMSD1 inhibition, spectrophotometrical in vitro assay; format: biochemical; details: HAA concentration of 10 μM
Experimental: The activity of compounds as inhibitors of ACMSD1 is determined in a spectrophotometrical in vitro assay. The pre-assay mixture is incubated and a compound of Formula (I), Formula (Ia), Formula (Ib), Formula (II), or Formula (III), or a pharmaceutically acceptable salt thereof, and ACMSD1 solution is then added. The effect of ACMS concentration on the enzyme activity is investigated by varying 3-hydroxyanthranilic acid (3OH-HA) concentration in the pre-assay mixture. Kinetic parameters are calculated from the initial velocity data using a Lineweaver-Burk plot.
The activity of compounds 1-19 and 21-23 as inhibitors of ACMSD1 was determined by measuring the conversion of 3OH-Anthranilic Acid into product (i.e., ACMS) in a spectrophotometrical in vitro assay.
The pre-assay mixture consisting of 3-hydroxyanthranilic acid (3OH-HA), 3-hydroxyanthranilic acid, 3,4-diOxygenase (HAO), and a dialyzed crude extract of E. coli BL21 (DE3) cells expressing the recombinant enzyme, was incubated at 25° C. with monitoring of the increase in absorbance at 360 nm due to the formation of ACMS from 3OH-HA. After the reaction was completed within ˜2 mins, an aliquot of ACMSD1 solution (prepared and purified from Pichia Pastoris overexpressing the recombinant enzyme) was added, and the decrease in absorbance at 360 nm was followed at 15 second intervals. The effect of ACMS concentration on the enzyme activity was investigated by varying 3OH-HA concentration from 2 to 20 μM. Kinetic parameters were calculated from the initial velocity data by using the Lineweaver-Burk plot.
The rate of the decrease in absorbance caused by ACMSD1 was calculated by subtracting that of the control reaction mixture without ACMSD from that described above. One unit of ACMSD activity was indicated as the amount of enzyme that converts 1 mmol of ACMS per minute at 25° C. The absence or a reduction of ACMSD1 activity (e.g., by using ACMSD inhibitors) results in a slow ACMS-spontaneous degradation (i.e., cyclization to form quinolic acid).
The enzymatic activity was determined at a HAA concentration of 10 μM in the presence of the compounds in Table 1 below. The compounds were tested at the concentration of about 5 μM and 10 μM and the IC50 was calculated for compounds showing inhibitory activity higher than 50%.

ACMSD-1 = ACMSD-1 (Homo sapiens (Human), UniProt Q8TDX5); test: ACMSD-1 modulation in HEK293T cells transiently expressing ACMSD; format: cell-based; details: about 50 nM to about 5 uM; stimulated 48 hrs to 72 hrs
Experimental: HEK293T cells are seeded and transfected to transiently express ACMSD. […] The amount of the whole protein content in cell lysates is detected by Bradford analysis and used to get the specificity activity of the enzyme normalized in all samples.
HEK293T cells (ATCC) were seeded in six-well plates and transfected using Fugene HD to express transiently ACMSD. […] The amount of the whole protein content in cell lysates was detected by Bradford analysis. This value was used to get the specificity activity of the enzyme normalized in all samples (mU/ml or ΔE/Δt/mg of total protein).

[1] = tested on: SIRT1-regulated genes in AML-12 cells; test: RT-qPCR analysis of SIRT1-regulated genes in AML-12 cells; format: cell-based, mouse; details: 24 hrs
Experimental: (§1) Cells (AML-12, Hepa-1.6, HEK-293, primary human and murine hepatocytes) are treated with different concentrations of a compound of Formula (I), Formula (Ia), Formula (Ib), Formula (II), or Formula (III), or a pharmaceutically acceptable salt thereof and the gene expression of ACMSD, Pgc1a, Sod1, and Sod2 (MnSOD) is determined using RT-qPCR. Total RNA is extracted from cells and the extracted RNA is treated with DNase and used for reverse transcription (RT).
(§2) Gene expression of ACMSD and genes known to be regulated by SIRT1, (an enzyme that is strictly NAD^+ dependent) such as Pgc1a, Sod1, Sod2 (MnSOD), were analysed in AML-12 cells, Hepa-1.6 cells and primary murine hepatocytes treated with Compound 1 or 17.
(§3) Cells (AML-12, Hepa-1.6, HEK-293, primary human and murine hepatocytes) were treated with different concentrations of Compound 1 or Compound 17. Total RNA was extracted from cells using TRIzol (Invitrogen) according to the manufacturer's instructions. The RNA was treated with DNase, and 2 μg of RNA was used for reverse transcription (RT). 50× diluted cDNA was used for RT-quantitative PCR (RT-qPCR) reactions. The RT-qPCR reactions were performed using the Light-Cycler system (Roche Applied Science) and a qPCR Supermix (QIAGEN) with the indicated primers. The average of at least three technical repeats was used for each biological data point.

[2] = tested on: SIRT1-regulated genes in Hepa-1.6 cells; test: RT-qPCR analysis of SIRT1-regulated genes in Hepa-1.6 cells; format: cell-based; details: Hepa-1.6 hepatic cell line, 24 hrs
Experimental: as §1, §2, §3

hACMSD (ACMSD1), sequence (Q8TDX5 whole entry): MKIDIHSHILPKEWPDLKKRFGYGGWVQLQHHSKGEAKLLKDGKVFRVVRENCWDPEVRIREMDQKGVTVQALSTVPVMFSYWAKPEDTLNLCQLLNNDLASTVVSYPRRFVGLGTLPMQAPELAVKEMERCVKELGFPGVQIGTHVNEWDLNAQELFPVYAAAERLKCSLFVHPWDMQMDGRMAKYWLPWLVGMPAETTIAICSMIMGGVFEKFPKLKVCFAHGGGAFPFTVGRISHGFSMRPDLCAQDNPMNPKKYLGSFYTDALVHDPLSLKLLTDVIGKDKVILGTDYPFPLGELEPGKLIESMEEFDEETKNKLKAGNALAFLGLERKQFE
ACMSD-1, sequence (Q8TDX5 whole entry): as above

N#Cc1c(-c2ccccc2)nc(SCc2cccc(C(=O)O)c2)[nH]c1=O [Compound 1]
IC50 (hACMSD (ACMSD1)): 50 nM | ACMSD-1 activity in transfected HEK293T cells (ACMSD-1): inhibited ACMSD-1 activity, in a dose dependent manner | Sod2 mRNA levels [1]: increased in a dose-dependent manner | Sod2 mRNA levels [2]: increased in a dose-dependent manner
